Publication PMC10604444, “Extra-Synaptic GABAA Receptor Potentiation and Neurosteroid-Induced Learning Deficits Are Inhibited by GR3027, a GABAA Modulating Steroid Antagonist” (Biomolecules, 2023)

Assays:
[1] = molecular target: T1, human α5β3γ2L GABAA receptors expressed in HEK-293 cells (Homo sapiens, UniProt P28472+P31644); experiment: Whole-cell patch clamp of GABA/THDOC-evoked currents, extra-synaptic protocol (Dynaflow); type: cell-based
T1 construct: The coding regions of the human GABAA receptor subunits were then amplified by PCR; expressed in transfected cells; host or cells: HEK-293 (permanently transfected, pcDNA3.1 vectors, CMV promoter)
T1 sequence (P31644 32-462): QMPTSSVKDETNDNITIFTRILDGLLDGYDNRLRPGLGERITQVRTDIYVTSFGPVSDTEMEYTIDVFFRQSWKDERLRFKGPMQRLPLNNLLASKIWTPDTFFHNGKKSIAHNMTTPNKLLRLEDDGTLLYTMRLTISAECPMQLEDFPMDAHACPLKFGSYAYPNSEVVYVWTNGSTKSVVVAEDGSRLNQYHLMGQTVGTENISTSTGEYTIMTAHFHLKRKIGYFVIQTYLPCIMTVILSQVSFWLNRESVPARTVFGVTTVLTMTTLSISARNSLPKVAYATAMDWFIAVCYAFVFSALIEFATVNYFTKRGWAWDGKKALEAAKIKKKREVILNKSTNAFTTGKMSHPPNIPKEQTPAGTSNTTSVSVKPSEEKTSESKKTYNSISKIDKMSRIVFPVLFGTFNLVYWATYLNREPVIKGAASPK
T1 sequence (P28472 26-473 isoform P28472-2 limits assumed): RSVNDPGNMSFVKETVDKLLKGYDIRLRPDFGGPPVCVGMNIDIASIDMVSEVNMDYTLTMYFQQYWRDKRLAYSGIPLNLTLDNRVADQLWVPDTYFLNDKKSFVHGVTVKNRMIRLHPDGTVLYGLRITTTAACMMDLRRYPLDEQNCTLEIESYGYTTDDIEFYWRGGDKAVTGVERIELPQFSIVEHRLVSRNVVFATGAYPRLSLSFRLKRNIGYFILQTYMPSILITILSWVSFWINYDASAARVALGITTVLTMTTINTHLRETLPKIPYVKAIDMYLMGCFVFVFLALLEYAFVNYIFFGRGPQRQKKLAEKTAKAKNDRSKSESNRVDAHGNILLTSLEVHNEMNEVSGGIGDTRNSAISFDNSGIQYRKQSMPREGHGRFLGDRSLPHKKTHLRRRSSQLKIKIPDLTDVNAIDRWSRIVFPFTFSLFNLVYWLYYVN
T1 sequence (P18507 40-475 partner): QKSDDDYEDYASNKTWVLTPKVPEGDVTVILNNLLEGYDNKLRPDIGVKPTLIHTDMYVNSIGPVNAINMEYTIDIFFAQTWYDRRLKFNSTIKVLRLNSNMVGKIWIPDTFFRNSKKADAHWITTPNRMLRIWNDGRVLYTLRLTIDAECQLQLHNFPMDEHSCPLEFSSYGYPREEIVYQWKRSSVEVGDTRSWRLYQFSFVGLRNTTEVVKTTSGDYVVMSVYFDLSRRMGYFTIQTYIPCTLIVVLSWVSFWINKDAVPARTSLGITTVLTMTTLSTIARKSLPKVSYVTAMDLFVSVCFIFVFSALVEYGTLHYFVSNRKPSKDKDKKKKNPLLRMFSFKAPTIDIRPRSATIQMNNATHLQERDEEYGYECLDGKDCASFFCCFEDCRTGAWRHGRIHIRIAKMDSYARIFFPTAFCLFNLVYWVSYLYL
Excerpt: Wild-type HEK-293 cells (passage 4, originating from Pasteur Institute, Paris, France) were permanently transfected with vectors including the human CMV promoter for the constitutive expression of the human α5, β3, and γ2L GABAA receptor subunits (α5β3γ2L) or the human α1, β2, and γ2L GABAA receptor subunits (α1β2γ2L). The production of the plasmids used in the sub-cloning of the different subunits is published in Rahman et al..
The electrophysiological recordings from HEK-293 cells were performed with the whole-cell voltage clamp technique, at room temperature (21–23 °C). After compensation for liquid junction potential, a steady holding potential of −17 mV was used in all experiments. Patch pipettes were pulled from borosilicate glass (Bergman Labora AB, Danderyd, Sweden) and polished to a resistance of 2–5 MΩ when filled with intracellular solution and immersed in a bath (extracellular) solution (for solutions, see below). The pipette tips were filled by immersion in standard intracellular solution and subsequent back-filling with intracellular solution. The recordings were made using an Axopatch 200B amplifier and a Digidata 1322A (Axon Instruments, Foster City, CA, USA) controlled via a Pentium processor-based personal computer. Data were acquired using the pCLAMP software sampled at 10 kHz, filtered at 2–10 kHz, and analyzed with Clampfit (versions 9.0, both from Axon Instruments, Foster City, CA, USA). A series resistance between the pipette and cell membrane not higher than 20 MΩ was accepted. No series resistance compensation was used. The stability of series resistance was monitored repeatedly from the time course of capacitative transients during the experiments. The measured liquid junction potential between extracellular and intracellular solutions was subtracted from all data presented, as previously described. All experiments were performed at room temperature (21–23 °C).
In all electrophysiological experiments, tetrahydro-deoxycorticosterone (THDOC) was used as a positive GABAA receptor steroid modulator (PAM) to mimic the effect of AP on central GABAA channels. […] THDOC (Sigma Chemical Co., St. Louis, MO, USA) and GR3027 (3α-ethynyl, 3β-hydroxyl, 5α-androstan-17-oxime, golexanolone, Umecrine Cognition AB, Stockholm, Sweden) were dissolved in dimethyl sulfoxide (DMSO) using ultrasound, for the preparation of solutions containing a final DMSO concentration of 0.1%. GR3027 was discovered within a series of molecules developed and patented by T. Bäckström and G. Ragagnin, (patent WO 2008/063128). All solutions were complemented with DMSO to achieve the same final concentration as in the steroid-containing test solution. GABA (Sigma Chemical Co., St. Louis, MO, USA) was first prepared as a stock solution (dissolved in EC with ultrasonic treatment) to the desired concentrations, with the corresponding final concentrations of test solutions (30 µM and 0.3 µM; see protocols below). GABA was added to the experimental solution without a change in osmolarity.
The experimental protocols were designed to mimic the physiological conditions of the tonic (extra-synaptic) and phasic (synaptic) activation of GABAA receptors observed in central neurons, depending on the subunit compositions, respectively. GABA-evoked currents in HEK-293 cells expressing extra-synaptic (α5β3γ2L) or synaptic (α1β2γ2L) types of GABAA receptors were studied using the conventional whole-cell patch clamp technique. To mimic the physiological GABA exposure, the HEK-293 cells expressing α1β2γ2L GABAA receptors were exposed to short applications (40 ms) of 30 µM GABA, whereas HEK-293 cells expressing α5β3γ2L GABAA receptors were exposed to prolonged applications (6 s) of 0.3 µM GABA, either in the absence or presence of THDOC and/or GR3027.

[2] = test system: dissociated hypothalamic cells (medial preoptic area); experiment: Perforated patch recording of spontaneous miniature inhibitory postsynaptic currents (mIPSCs); type: cell-based, rat; conditions: 30 and 100 nM AP, holding potential −11 mV, n = 5, p < 0.05
Description: For the patch clamp studies, male Sprague-Dawley rats (n = 5, weight < 130 g) were housed at two or four rats per cage at 22 °C and with artificial daylight. Rats had free access to water and standard food. The regional ethics committee for animal research approved the experimental protocols. All procedures including animals were conducted in accordance with the ethical guidelines set by the European Union Directive 2010/63/EU for animal experiments.
Electrophysiological experiments: The methods used for electrophysiological recording and cell preparation have been described in detail elsewhere. A summary of the procedures is given below. […]
Protocol and analysis: A standard protocol was used for the experiments. Firstly, the current was recorded in the control solution (EC solution) for 30–60 s, followed by a 60–300 s test period with or without AP. The spontaneous miniature inhibitory postsynaptic currents (mIPSCs) were detected by visual inspection of current changes. […] The time-course and amplitude of the currents were measured semi-manually by using cursors and were fitted to an exponential decay curve by the curve-fitting routine of the pCLAMP software (Axon Instruments, Foster City, CA, USA). […] All the mIPSC values from the treatment period of the recorded cell (n = 6–11 events) were pooled and the mean was subjected to statistical analysis. […]

[3] = i.v. AP; cited from earlier work

Compound | EC50 ([1]; EC50 of THDOC effect (outward shift in baseline holding current, direct activation), THDOC 30-300 nM, 0.3 µM GABA 6 s protocol, holding potential −17 mV) [nM] | THDOC Emax, % change in peak amplitude at 0.3 µM GABA ([1]; THDOC 0.01-1 µM + 0.3 µM GABA + 1 µM GR3027) [%] | THDOC Emax, % change in peak amplitude at 0.3 µM GABA ([1]; THDOC 0.01-1 µM + 0.3 µM GABA + 3 µM GR3027) [%] | THDOC Emax, % change in peak amplitude at 0.3 µM GABA ([1]; THDOC 0.01-1 µM + 0.3 µM GABA, no GR3027) [%] | Emax of THDOC effect (outward shift in baseline holding current, direct activation) ([1]; THDOC 30-300 nM, 0.3 µM GABA 6 s protocol) [%] | EC50 ([1]; THDOC EC50, enhancement of GABA-evoked peak amplitude, THDOC 0.01-1 µM + 0.3 µM GABA + 1 µM GR3027) [nM] | EC50 ([1]; THDOC EC50, enhancement of GABA-evoked peak amplitude, THDOC 0.01-1 µM + 0.3 µM GABA + 3 µM GR3027) [nM] | EC50 ([1]; THDOC EC50, enhancement of GABA-evoked peak amplitude, THDOC 0.01-1 µM + 0.3 µM GABA, no GR3027) [nM] | AUC of spontaneous miniature inhibitory postsynaptic currents vs vehicle [2] | Concentration in brain tissue after i.v. injections giving acute memory and learning disturbances [3] [nM]
C[C@]12CC[C@@H](O)C[C@@H]1CC[C@@H]1[C@@H]2CC[C@]2(C)[C@@H](C(=O)CO)CC[C@@H]12 [THDOC, 3α,21-dihydroxy-5α-pregnan-20-one, reference compound] | 32 | 489 | 482 | 687 | 145 | 220 | 350 | 190 | – | –
CC(=O)[C@H]1CC[C@H]2[C@@H]3CC[C@H]4C[C@H](O)CC[C@]4(C)[C@H]3CC[C@]12C [AP, 3α-OH-5α-pregnan-20-one] | – | – | – | – | – | – | – | – | significantly higher | 1000 to 2000
